{"source": "patent US20060183773A1", "about": "“Uses of methylphenidate derivatives” (priority 2005, published 2006)", "type_in_all_cases": "cell-based, human", "key": {"[1]": {"tested_on": "peripheral blood lymphocytes (PBL)", "assay": "PBL proliferation, Promega cell titer assay", "conditions": "for proliferation of PBL (OD at 530 nm): Dex 10 μM; for proliferation of PBL stimulated with PHA (OD at 530 nm): donor GR283", "experimental": "Whole blood was drawn from GR283, a human volunteer with known allergies, into a glass vacutainer tube containing no anticoagulant. This blood was allowed to clot, and the serum was removed by centrifugation and then heat inactivated by placing it in a water bath at 56° C. for 30 minutes. Whole blood from GR283 was also drawn into a glass vacutainer tube containing heparin and used for peripheral blood lymphocytes (PBL) isolation as follows. Whole blood was layered over room temperature Histopaque 1077 solution and centrifuged at 2000 rpm for 15 minutes at room temperature. Cells at the plasma-Histopaque interface were then removed and washed with culture medium (IMDM medium with 10% heat-inactivated GR283 serum plus 1% penicillin/streptomycin) at 37° C.\nThen, GR283's PBL in culture medium were added to the wells to give a final concentration of 150,000 cells per well, and the plates were incubated at 37° C., 5% CO2 for 24 hours. After this incubation, phytohemagglutinin (PHA) in culture medium was added to give final concentrations of 2 μg/ml, 5 μg/ml or 20 μg/ml, final total volume of 200 μl/well, and the cells were incubated for an additional 72 hours at 37° C., 5% CO2. All cultures were performed in triplicate.\nCell proliferation was assayed by adding 20 μl of Promega cell titer solution to each well and incubating the plate for an additional 4 hours. Promega cell titer solution is a solution containing a tetrazolium dye that is reduced by living cells to a formazan dye, and this reduction is proportional to the number of living cells present in the well. After the 4-hour incubation, the optical density (OD) at 530 nm of each well was measured. The OD at 530 nm for blank wells containing no cells was subtracted from the OD of the experimental wells.\nThen, GR467's PBL in culture medium were added to the wells to give a final concentration of 150,000 cells per well, and the plates were incubated at 37° C., 5% CO2 for 24 hours. After this incubation, PHA was added to give a final concentration of 2 μg/ml, final total volume of 200 μl/well, and the cells were incubated for an additional 72 hours at 37° C., 5% CO2. All cultures were performed in triplicate.\nThen, GR191's PBL in culture medium were added to the wells to give a final concentration of 150,000 cells per well, and the plates were incubated at 37° C., 5% CO2 for 24 hours. After this incubation, PHA was added to give final concentrations of 2 μg/ml and 5 μg/ml, final total volume of 200 μl/well, and the cells were incubated for an additional 72 hours at 37° C., 5% CO2. All cultures were performed in triplicate."}, "NFκB": {"tested_on": "NFκB", "assay": "Activated NFκB in VEGF-treated HUVECs, TransAM assay", "conditions": "for Mean OD 450 nm (NFκB): control 0.070, VEGF only 0.111", "experimental": "Passage 5 HUVECs, human source lot number 8750 (obtained from ATCC), were grown to confluence in 25 cm^2 flasks in EGM-2 medium. The following additives were added to the flasks (total volume of 5 ml/flask) in EGM-2 medium containing 2% FCS, GA1000 (gentamycin), heparin and ascorbic acid (all from Cambrex): 1 μg/ml of the compound of formula II (Cpd II); 5 μg/ml Cpd II; 15 μg/ml of Cpd II; 15 μg/ml methylphenidate (MP); or 10 μM LY 294002. The flasks were incubated overnight at 37° C., 5% CO2 After this incubation, vascular endothelial growth factor (VEGF) (obtained from Sigma) was added to give a final concentration 10 ng/ml, and the flasks were incubated for an additional 30 minutes.\nThen, the amount of NFκB was determined using a TransAM™ NFκB p65/NFκB p50 Transcription Factor Assay Kit and a Nuclear Extract Kit from Active Motif North America, Carlsbad, Calif., according to the manufacturer's instructions. Briefly, a nuclear extract of the cells was prepared using the Nuclear Extract Kit. Then, the nuclear extract was added to the wells of the 96-well plate of the TransAM™ kit. Oligonucleotide containing an NFκB consensus binding site was immobilized in the wells, and the activated NFκB contained in the nuclear extract was bound to the oligonucleotide. Then, an antibody directed against the NFκB p65 or p50 subunit was added, and the NFκB complex bound to the oligonucleotide was detected. A secondary antibody conjugated to horseradish peroxidase (HRP) was next added to provide a colorimetric readout that was quantified by spectrophotometry (measurement at 450 nm)."}, "c-Jun": {"tested_on": "c-Jun", "assay": "c-Jun in VEGF-treated HUVECs, TransAM AP-1 assay", "conditions": "for Mean OD 450 nm (c-Jun): control 0.204, VEGF only 0.261", "experimental": "The flasks were incubated overnight at 37° C., 5% CO2 After this incubation, vascular endothelial growth factor (VEGF) (obtained from Sigma) was added to give a final concentration 10 ng/ml, and the flasks were incubated for an additional 30 minutes.\nThe amount of c-Jun was determined using a TransAM™ AP-1 Family Transcription Factor Assay Kit and a Nuclear Extract Kit from Active Motif North America, Carlsbad, Calif., according to manufacturer's instructions. Briefly, a nuclear extract of the cells was prepared using the Nuclear Extract Kit. Then, the nuclear extract was added to the wells of a 96-well plate in which oligonucleotide containing a TPA-responsive element (TRE) was immobilized. Activator protein-1 (AP-1) dimers contained in the nuclear extract were bound to this oligonucleotide and were detected using an antibody specific for c-Jun. A secondary antibody conjugated to horseradish peroxidase (HRP) was next added to provide a colorimetric readout that was quantified by spectrophotometry (measurement at 450 nm)."}, "IL-8": {"tested_on": "IL-8", "assay": "IL-8 release by TNFα-stimulated HUVECs, ELISA", "conditions": "for Mean IL-8: 18 hours, TNFα + water 35572; for IL-8 release stimulated by TNFα (in words): HUVECs, Cpd II 1-30 μg/ml, MP 15 μg/ml, Dex and LY 294002 10 μM", "experimental": "Passage 4 HUVECs, human source lot number 8710 (obtained from ATCC), were put into the wells of a 24-well tissue culture plate at 5,000 cells/well in EGM-2 medium (obtained from Cambrex) and cultured for 72 hours at 37° C. and 5% CO2. […] After incubation for 1 hour at 37° C. and 5% CO2, TNFα (obtained from Pierce) was added to give a final concentration of 10 ng/ml, and the cells were incubated for an additional 18 hours at 37° C. and 5% CO2. After this incubation, the supernatants were collected, and the amount of IL-8 in the supernatants determined by ELISA as described in Example 4."}}, "data": [{"smiles": "COC(=O)C(c1ccc(-c2ccccc2)cc1)C1CCCCN1", "note": "(centres unmarked) [Cpd II]", "values": [{"measurement": "proliferation of PBL (OD at 530 nm)", "setting": "[1]; donor GR191, unstimulated and PHA 2, 5 μg/ml, Cpd II 5, 15, 25, 50 μg/ml, MP 50 μg/ml, FIGS. 5A-B", "result": "significantly inhibited the proliferation of PBL, both unstimulated and stimulated with PHA"}, {"measurement": "proliferation of PBL stimulated with PHA (OD at 530 nm)", "setting": "[1]; PHA 2, 5, 20 μg/ml, Cpd II 5, 15, 50 μg/ml, Dex 10 μg/ml, FIGS. 1A-C", "result": "significantly inhibited the proliferation of PBL stimulated with PHA in a dose-dependent manner"}, {"measurement": "proliferation of PBL (OD at 530 nm)", "setting": "[1]; donor GR467, unstimulated and 2 μg/ml PHA, Cpd II 5, 15, 25 μg/ml, MP 15 μg/ml, FIG. 2", "result": "significantly inhibited the proliferation of PBL, both unstimulated and stimulated with PHA"}, {"measurement": "Mean OD 450 nm (NFκB)", "setting": "NFκB; VEGF 10 ng/ml + 1 μg/ml", "result": "0.097 ± 0.013"}, {"measurement": "Mean OD 450 nm (NFκB)", "setting": "NFκB; VEGF 10 ng/ml + 5 μg/ml", "result": "0.065 ± 0.010"}, {"measurement": "Mean OD 450 nm (NFκB)", "setting": "NFκB; VEGF 10 ng/ml + 15 μg/ml", "result": "0.060 ± 0.008"}, {"measurement": "amount of activated NFκB (in words)", "setting": "NFκB; VEGF, 15 μg/ml and 5 μg/ml", "result": "reduced the amount of activated NFκB back to basal levels"}, {"measurement": "Mean OD 450 nm (c-Jun)", "setting": "c-Jun; VEGF 10 ng/ml + 1 μg/ml", "result": "0.221 ± 0.008"}, {"measurement": "Mean OD 450 nm (c-Jun)", "setting": "c-Jun; VEGF 10 ng/ml + 5 μg/ml", "result": "0.185 ± 0.025"}, {"measurement": "Mean OD 450 nm (c-Jun)", "setting": "c-Jun; VEGF 10 ng/ml + 15 μg/ml", "result": "0.204 ± 0.010"}, {"measurement": "amount of c-Jun (in words)", "setting": "c-Jun; VEGF, 15 μg/ml and 5 μg/ml", "result": "completely eliminated the increase in the amount of c-Jun"}, {"measurement": "Mean IL-8", "setting": "IL-8; 10 ng/ml TNFα + 1 μg/ml", "result": "53657 ± 3935.18", "unit": "pg/mL"}, {"measurement": "Mean IL-8", "setting": "IL-8; 10 ng/ml TNFα + 5 μg/ml", "result": "34482 ± 2127.22", "unit": "pg/mL"}, {"measurement": "Mean IL-8", "setting": "IL-8; 10 ng/ml TNFα + 10 μg/ml", "result": "22050 ± 727.27", "unit": "pg/mL"}, {"measurement": "Mean IL-8", "setting": "IL-8; 10 ng/ml TNFα + 15 μg/ml", "result": "20817 ± 674.63", "unit": "pg/mL"}, {"measurement": "Mean IL-8", "setting": "IL-8; 10 ng/ml TNFα + 30 μg/ml", "result": "4829.8 ± 214.13", "unit": "pg/mL"}, {"measurement": "IL-8 release stimulated by TNFα (in words)", "setting": "IL-8", "result": "decreased IL-8 release stimulated by TNFα in a dose-dependent manner"}]}, {"smiles": "COC(=O)C(c1ccccc1)C1CCCCN1", "note": "(centres unmarked) [methylphenidate]", "values": [{"measurement": "proliferation of PBL stimulated with PHA (OD at 530 nm)", "setting": "[1]; methylphenidate at the other dose / PHA combinations", "result": "did not significantly reduce the proliferation of the PHA-stimulated PBL"}, {"measurement": "proliferation of PBL stimulated with PHA (OD at 530 nm)", "setting": "[1]; methylphenidate highest dose (50 μg/ml), lowest PHA dose (2 μg/ml)", "result": "showed a significant effect at its highest dose and the lowest PHA dose"}, {"measurement": "Mean OD 450 nm (NFκB)", "setting": "NFκB; VEGF 10 ng/ml + 15 μg/ml", "result": "0.093 ± 0.011"}, {"measurement": "Mean OD 450 nm (c-Jun)", "setting": "c-Jun; VEGF 10 ng/ml + 15 μg/ml", "result": "0.230 ± 0.016"}, {"measurement": "Mean IL-8", "setting": "IL-8; 10 ng/ml TNFα + 15 μg/ml", "result": "30183 ± 3448.01", "unit": "pg/mL"}, {"measurement": "IL-8 release stimulated by TNFα (in words)", "setting": "IL-8", "result": "slightly decreased IL-8 release"}]}]}
